Assay results taken from BigSolDB 2.1.

CC(=O)c1c(C)c([N+](=O)[O-])c(C(C)(C)C)c([N+](=O)[O-])c1C
solubility (mole fraction)
Settings	278.15 K	283.15 K	288.15 K	293.15 K	298.15 K	303.15 K	308.15 K	313.15 K	318.15 K
in DMF	0.0747	0.0867	0.0998	0.113	0.128	0.147	0.167	0.187	0.211
in ethanol	0.00197	0.00243	0.003	0.00367	0.00444	0.00531	0.00633	0.00753	0.00892
in isopropanol	0.00161	0.00204	0.00258	0.00323	0.00408	0.00506	0.0063	0.00771	0.00933
in methanol	0.0013	0.00156	0.00187	0.00224	0.00267	0.00318	0.00375	0.00442	0.00515
